{"source": "patent US5721207A", "about": "“Method for treatment of pain” (Innapharma, Inc., priority 1995, dated 1998)", "key": {"[1]": {"conditions": "epidural administration; cited from earlier work"}}, "note": "Read-outs that look alike come from different tables or passages of the source. Ends that are not written are not given here."}
{"compound": "salmon calcitonin: salmon calcitonin, sequence given as SEQ ID No 4 (CSNLSTCVLGKLSQELHKLQTYPRTNTGSGTP; ends and bridges not checked; cysteine pairing not given here)", "values": [{"measurement": "use as an analgesic in intractable pain", "setting": "[1]", "value": "the data did not appear to support its use as an analgesic"}]}
{"compound": "CN1CC[C@]23c4c5ccc(O)c4O[C@H]2[C@@H](O)C=C[C@H]3[C@H]1C5.O=S(=O)(O)O", "note": "[Morphine, Morphine sulfate]", "values": [{"measurement": "Hot Plate Latency (Mean ± SEM)", "setting": "rat; 37.5 μg/kg (49.42 nmol/kg) intrathecal single, 0 hr (baseline)", "value": "12.81 ± 1.23", "unit": "s"}, {"measurement": "Hot Plate Latency (Mean ± SEM)", "setting": "rat; 37.5 μg/kg (49.42 nmol/kg) intrathecal single, 0.25 hr", "value": "22.08 ± 2.68", "unit": "s"}, {"measurement": "Hot Plate Latency (Mean ± SEM)", "setting": "rat; 37.5 μg/kg (49.42 nmol/kg) intrathecal single, 0.5 hr", "value": "20.97 ± 2.56", "unit": "s"}, {"measurement": "Hot Plate Latency (Mean ± SEM)", "setting": "rat; 37.5 μg/kg (49.42 nmol/kg) intrathecal single, 1 hr", "value": "21.81 ± 2.46", "unit": "s"}, {"measurement": "Hot Plate Latency (Mean ± SEM)", "setting": "rat; 37.5 μg/kg (49.42 nmol/kg) intrathecal single, 3 hr", "value": "19.97 ± 2.05", "unit": "s"}, {"measurement": "Hot Plate Latency (Mean ± SEM)", "setting": "rat; 37.5 μg/kg (49.42 nmol/kg) intrathecal single, 6 hr", "value": 14.02, "unit": "s"}, {"measurement": "Hot Plate Latency (Mean ± SEM)", "setting": "rat; 37.5 μg/kg (49.42 nmol/kg) intrathecal single, 24 hr", "value": "11.33 ± 1.51", "unit": "s"}, {"measurement": "Hot Plate Latency (Mean ± SEM)", "setting": "rat; 75.0 μg/kg (98.84 nmol/kg) intrathecal single, 0 hr (baseline)", "value": "13.76 ± 1.27", "unit": "s"}, {"measurement": "Hot Plate Latency (Mean ± SEM)", "setting": "rat; 75.0 μg/kg (98.84 nmol/kg) intrathecal single, 0.25 hr", "value": "22.76 ± 2.43", "unit": "s"}, {"measurement": "Hot Plate Latency (Mean ± SEM)", "setting": "rat; 75.0 μg/kg (98.84 nmol/kg) intrathecal single, 0.5 hr", "value": "21.86 ± 2.25", "unit": "s"}, {"measurement": "Hot Plate Latency (Mean ± SEM)", "setting": "rat; 75.0 μg/kg (98.84 nmol/kg) intrathecal single, 1 hr", "value": "19.88 ± 2.04", "unit": "s"}, {"measurement": "Hot Plate Latency (Mean ± SEM)", "setting": "rat; 75.0 μg/kg (98.84 nmol/kg) intrathecal single, 3 hr", "value": "17.42 ± 1.93", "unit": "s"}, {"measurement": "Hot Plate Latency (Mean ± SEM)", "setting": "rat; 75.0 μg/kg (98.84 nmol/kg) intrathecal single, 6 hr", "value": 17.66, "unit": "s"}, {"measurement": "Hot Plate Latency (Mean ± SEM)", "setting": "rat; 75.0 μg/kg (98.84 nmol/kg) intrathecal single, 24 hr", "value": "12.60 ± 1.19", "unit": "s"}, {"measurement": "Hot Plate Latency (Mean ± SEM)", "setting": "rat; 125.0 μg/kg (164.73 nmol/kg) intrathecal single, 0 hr (baseline)", "value": "13.28 ± 1.35", "unit": "s"}, {"measurement": "Hot Plate Latency (Mean ± SEM)", "setting": "rat; 125.0 μg/kg (164.73 nmol/kg) intrathecal single, 0.25 hr", "value": "19.4 ± 1.6", "unit": "s"}, {"measurement": "Hot Plate Latency (Mean ± SEM)", "setting": "rat; 125.0 μg/kg (164.73 nmol/kg) intrathecal single, 0.5 hr", "value": "26.36 ± 4.20", "unit": "s"}, {"measurement": "Hot Plate Latency (Mean ± SEM)", "setting": "rat; 125.0 μg/kg (164.73 nmol/kg) intrathecal single, 1 hr", "value": "26.83 ± 3.04", "unit": "s"}, {"measurement": "Hot Plate Latency (Mean ± SEM)", "setting": "rat; 125.0 μg/kg (164.73 nmol/kg) intrathecal single, 3 hr", "value": "21.69 ± 3.62", "unit": "s"}, {"measurement": "Hot Plate Latency (Mean ± SEM)", "setting": "rat; 125.0 μg/kg (164.73 nmol/kg) intrathecal single, 6 hr", "value": 15.86, "unit": "s"}, {"measurement": "Hot Plate Latency (Mean ± SEM)", "setting": "rat; 125.0 μg/kg (164.73 nmol/kg) intrathecal single, 24 hr", "value": 13.49, "unit": "s"}, {"measurement": "onset of antinociception/analgesia post-injection", "setting": "rat; intrathecal, all tested doses", "value": "≤ 15", "unit": "min"}, {"measurement": "dose relation of hot plate latency", "setting": "rat; intrathecal, all three doses (37.5, 75.0, 125.0 μg/kg)", "value": "increased hot plate latency in a dose-related fashion"}, {"measurement": "peak levels of analgesia compared with elcatonin", "setting": "rat; intrathecal, doses used in this study", "value": "generally lower"}, {"measurement": "time of return toward baseline hot plate scores", "setting": "rat; intrathecal, post-injection, particularly lower doses", "value": "≤ 6", "unit": "h"}]}
